Article PMC8537068, “Do Lipids Influence Gastrointestinal Processing: A Case Study of Major Soybean Allergen Gly m 4” (Membranes, 2021)

Legend:
Gly m 4 = biological target: T1, Gly m 4 (Glycine max, UniProt P26987); assay: TNS displacement fluorescence; assay type: binding; details: 4 µM protein, 4 µM TNS, 4 µM lipid; 0.01 M phosphate pH 7.4, 25 °C
T1 construct: gene PR-10
T1 sequence (P26987 1-158): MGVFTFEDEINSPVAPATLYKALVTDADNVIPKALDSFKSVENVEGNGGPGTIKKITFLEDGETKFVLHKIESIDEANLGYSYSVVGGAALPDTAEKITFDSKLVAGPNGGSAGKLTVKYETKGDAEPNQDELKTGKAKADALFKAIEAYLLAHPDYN

pepsin = biological target: T2, pepsin (Sus scrofa, UniProt P00791); assay: TNS displacement fluorescence; assay type: binding; details: 4 µM protein, 4 µM TNS, 4 µM lipid; 0.05 M HCl pH 2.0, 25 °C
T2 construct: gene PGA; commercial native porcine pepsin (Sigma-Aldrich), mature enzyme without propeptide
T2 sequence (P00791 60-385): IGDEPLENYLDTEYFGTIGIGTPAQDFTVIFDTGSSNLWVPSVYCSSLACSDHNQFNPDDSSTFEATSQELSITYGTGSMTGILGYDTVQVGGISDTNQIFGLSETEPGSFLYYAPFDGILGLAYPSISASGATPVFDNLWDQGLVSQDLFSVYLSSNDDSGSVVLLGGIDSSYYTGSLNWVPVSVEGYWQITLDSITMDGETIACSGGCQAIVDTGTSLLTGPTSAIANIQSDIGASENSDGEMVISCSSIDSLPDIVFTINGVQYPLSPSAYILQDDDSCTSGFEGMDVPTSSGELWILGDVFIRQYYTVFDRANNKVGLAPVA

% of control TNS fluorescence (Gly m 4) [%]	Structure (SMILES)	% of control TNS fluorescence (pepsin)
26	CCCCCCCCCCCCCCCC(=O)OC[C@@H](O)COP(=O)(O)OCC(O)CO (some centres unmarked) [LPPG, 1-palmitoyl-2-hydroxy-sn-glycero-3-phosphoglycerol]	pepsin bound to the tested FAs and LPPG with an equal efficiency
12	CCCCCCCC/C=C\CCCCCCCC(=O)O [OLE, oleic acid]	pepsin bound to the tested FAs and LPPG with an equal efficiency
	CCCCCCCCCCCCCCCCCC(=O)O [STE, stearic acid]	pepsin bound to the tested FAs and LPPG with an equal efficiency
